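Protocol summary: plate cells (96-well), add compound at 5 concentrations, incubate 48 h, interpolate endpoints linearly. Abbreviation: GI50, concentration required for 50% inhibition of growth.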 Active and inactive are the calls of the source. Cut-off read from the data, not from the text of the source: active = GI50 up to about 1.1 µM and inactive = higher.
Assays:
Assay in all cases: NCI-60 cell line screen, 48 h
MOLT-4 = system: MOLT-4
A549 = system: A549
KM-20L2 = system: KM-20L2
TK-10 = system: TK-10
OVCAR-8 = system: OVCAR-8
NCI-H23 = system: NCI-H23
Malme-3M = system: Malme-3M
SW-620 = system: SW-620
SK-MEL-28 = system: SK-MEL-28
ACHN = system: ACHN
RXF 631 = system: RXF 631
OVCAR-5 = system: OVCAR-5
M19-MEL = system: M19-MEL
LXFL 529 = system: LXFL 529
UACC-257 = system: UACC-257
KM12 = system: KM12
NCI-H226 = system: NCI-H226
SF-295 = system: SF-295
786-0 = system: 786-0
M14 = system: M14
SK-MEL-2 = system: SK-MEL-2
EKVX = system: EKVX
HOP-18 = system: HOP-18
CAKI-1 = system: CAKI-1
SNB-75 = system: SNB-75
NCI-H522 = system: NCI-H522
UACC-62 = system: UACC-62
HOP-92 = system: HOP-92
K562 = system: K562
DMS-114 = system: DMS-114
HT-29 = system: HT-29
CCRF-CEM = system: CCRF-CEM
SK-MEL-5 = system: SK-MEL-5
UO-31 = system: UO-31
HL-60 = system: HL-60
DLD-1 = system: DLD-1
SN12C = system: SN12C
RXF 393 = system: RXF 393
COLO 205 = system: COLO 205
DMS-273 = system: DMS-273
U-251 = system: U-251
HCT-116 = system: HCT-116
OVCAR-4 = system: OVCAR-4
SK-OV-3 = system: SK-OV-3
A498 = system: A498
SF-539 = system: SF-539
OVCAR-3 = system: OVCAR-3
SNB-19 = system: SNB-19
IGROV-1 = system: IGROV-1
HCC 2998 = system: HCC 2998
LOX IMVI = system: LOX IMVI
HCT-15 = system: HCT-15
RPMI-8226 = system: RPMI-8226
SNB-78 = system: SNB-78
SF-268 = system: SF-268
NCI-H460 = system: NCI-H460
HOP-62 = system: HOP-62
SR = system: SR

With `O=C1C=Cc2noc3cccc1c23` the GI50 (MOLT-4) was 0.836 µM (active), the GI50 (A549) was 19 µM (inactive) and the GI50 (KM-20L2) was 15.5 µM (inactive). The GI50 (TK-10) was 18.4 µM (inactive), the GI50 (OVCAR-8) was 2.88 µM (inactive) and the GI50 (NCI-H23) was 8.97 µM (inactive). The GI50 (Malme-3M) was 12.3 µM (inactive), the GI50 (SW-620) was 4.01 µM (inactive) and the GI50 (SK-MEL-28) was 5.47 µM (inactive). For the same compound, the GI50 (ACHN) was 2.76 µM (inactive), the GI50 (RXF 631) was 13.8 µM (inactive) and the GI50 (OVCAR-5) was 14.5 µM (inactive). For the same compound, the GI50 (M19-MEL) was 3.18 µM (inactive), the GI50 (LXFL 529) was 1.94 µM (inactive) and the GI50 (UACC-257) was 12.6 µM (inactive). For the same compound, the GI50 (KM12) was 4.85 µM (inactive), the GI50 (NCI-H226) was 19.1 µM (inactive) and the GI50 (SF-295) was 18.6 µM (inactive). The GI50 (786-0) was 7.08 µM (inactive), the GI50 (M14) was 9.08 µM (inactive) and the GI50 (SK-MEL-2) was 7.4 µM (inactive). The GI50 (EKVX) was 3.9 µM (inactive), the GI50 (HOP-18) was 18.7 µM (inactive) and the GI50 (CAKI-1) was 12.5 µM (inactive). The GI50 (SNB-75) was 11.6 µM (inactive), the GI50 (NCI-H522) was 1.29 µM (inactive) and the GI50 (UACC-62) was 3.06 µM (inactive). For the same compound, the GI50 (HOP-92) was 2.28 µM (inactive), the GI50 (K562) was 2.5 µM (inactive) and the GI50 (DMS-114) was 2.07 µM (inactive). The GI50 (HT-29) was 15.1 µM (inactive), the GI50 (CCRF-CEM) was 0.412 µM (active) and the GI50 (SK-MEL-5) was 10.5 µM (inactive). For the same compound, the GI50 (UO-31) was 4.62 µM (inactive), the GI50 (HL-60) was 1.05 µM (active) and the GI50 (DLD-1) was 1.66 µM (inactive). The GI50 (SN12C) was 11.7 µM (inactive), the GI50 (RXF 393) was 2.52 µM (inactive) and the GI50 (COLO 205) was 17 µM (inactive). The GI50 (DMS-273) was 6.61 µM (inactive), the GI50 (U-251) was 13.4 µM (inactive) and the GI50 (HCT-116) was 2.11 µM (inactive). The GI50 (OVCAR-4) was 2.07 µM (inactive), the GI50 (SK-OV-3) was 18.1 µM (inactive) and the GI50 (A498) was 13.6 µM (inactive). For the same compound, the GI50 (SF-539) was 16.4 µM (inactive), the GI50 (OVCAR-3) was 3.31 µM (inactive) and the GI50 (SNB-19) was 17.5 µM (inactive). The GI50 (IGROV-1) was 12.9 µM (inactive), the GI50 (HCC 2998) was 14.7 µM (inactive) and the GI50 (LOX IMVI) was 3.15 µM (inactive). The GI50 (HCT-15) was 3.08 µM, the GI50 (RPMI-8226) was 2.01 µM (inactive) and the GI50 (SNB-78) was 2.86 µM (inactive). For the same compound, the GI50 (SF-268) was 3.15 µM (inactive).

With `CC1OC(OCC2OC(Oc3c(-c4ccc(O)cc4)oc4cc(O)cc(O)c4c3=O)C(OC3OCC(O)(CO)C3O)C(O)C2O)C(O)C(O)C1O` (configuration not stated) the GI50 (MOLT-4) was > 100 µM (inactive), the GI50 (A549) was > 100 µM (inactive) and the GI50 (KM-20L2) was > 100 µM (inactive). The GI50 (TK-10) was > 100 µM (inactive), the GI50 (OVCAR-8) was > 100 µM (inactive) and the GI50 (NCI-H23) was > 100 µM (inactive). The GI50 (Malme-3M) was > 100 µM (inactive), the GI50 (SW-620) was 79.1 µM (inactive) and the GI50 (SK-MEL-28) was > 100 µM (inactive). The GI50 (ACHN) was > 100 µM (inactive), the GI50 (RXF 631) was > 100 µM (inactive) and the GI50 (OVCAR-5) was > 100 µM (inactive). The GI50 (NCI-H460) was 66.4 µM (inactive), the GI50 (M19-MEL) was 21.7 µM (inactive) and the GI50 (LXFL 529) was > 100 µM (inactive). For the same compound, the GI50 (UACC-257) was > 100 µM (inactive), the GI50 (KM12) was > 100 µM (inactive) and the GI50 (NCI-H226) was > 100 µM (inactive). For the same compound, the GI50 (SF-295) was > 100 µM (inactive), the GI50 (786-0) was 90.8 µM (inactive) and the GI50 (M14) was > 100 µM (inactive). The GI50 (SK-MEL-2) was > 100 µM (inactive), the GI50 (EKVX) was > 100 µM (inactive) and the GI50 (HOP-18) was > 100 µM (inactive). The GI50 (CAKI-1) was > 100 µM (inactive), the GI50 (SNB-75) was > 100 µM (inactive) and the GI50 (NCI-H522) was > 100 µM (inactive). For the same compound, the GI50 (UACC-62) was > 100 µM (inactive), the GI50 (HOP-92) was > 100 µM (inactive) and the GI50 (K562) was 29.4 µM (inactive). The GI50 (DMS-114) was 32 µM (inactive), the GI50 (HT-29) was > 100 µM (inactive) and the GI50 (CCRF-CEM) was 25.7 µM (inactive). The GI50 (SK-MEL-5) was > 100 µM (inactive), the GI50 (UO-31) was > 100 µM (inactive) and the GI50 (HL-60) was 21.2 µM (inactive). The GI50 (DLD-1) was 36.8 µM (inactive), the GI50 (SN12C) was > 100 µM (inactive) and the GI50 (COLO 205) was 38.1 µM (inactive). For the same compound, the GI50 (DMS-273) was 49.2 µM (inactive), the GI50 (U-251) was 44.6 µM (inactive) and the GI50 (HCT-116) was 31.2 µM (inactive). For the same compound, the GI50 (OVCAR-4) was > 100 µM (inactive), the GI50 (SK-OV-3) was > 100 µM (inactive) and the GI50 (A498) was > 100 µM (inactive). The GI50 (SF-539) was > 100 µM (inactive), the GI50 (OVCAR-3) was > 100 µM (inactive) and the GI50 (SNB-19) was > 100 µM (inactive). The GI50 (HOP-62) was > 100 µM (inactive), the GI50 (IGROV-1) was > 100 µM (inactive) and the GI50 (HCC 2998) was > 100 µM (inactive). The GI50 (LOX IMVI) was 51.9 µM (inactive), the GI50 (HCT-15) was 22.1 µM and the GI50 (RPMI-8226) was > 100 µM (inactive). For the same compound, the GI50 (SNB-78) was > 100 µM (inactive), the GI50 (SF-268) was > 100 µM (inactive) and the GI50 (SR) was > 100 µM (inactive).
